Experimental data taken from US12011444B2, “N-substituted indole derivatives as PGE2 receptor modulators” (Idorsia Pharmaceuticals Ltd, priority 2015, dated 2024).
pIC50: −log10 of the molar value.

Key:
EP4 = EP4 (Homo sapiens (Human), UniProt P35408); assay: hEP4 cAMP assay (BT549 breast cancer cells, HTRF cAMP); format: cell-based; conditions: antagonistic activity; mean values where measured multiple times
Method: Plate is pre-incubated 45 minutes at room temperature. Subsequently, 2.5 microliters of PGE2 (final conc. 6 nM) are transferred into the assay plate. Plate is incubated 30 minutes at room temperature.

EP2 = EP2 (Homo sapiens (Human), UniProt P43116);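 further: antagonism of PGE2-stimulated cAMP accumulation in SF295 human glioblastoma cells with endogenous EP2, cAMP read by HTRF, expressed relative to DMSO control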
EP2, sequence (P43116 whole entry): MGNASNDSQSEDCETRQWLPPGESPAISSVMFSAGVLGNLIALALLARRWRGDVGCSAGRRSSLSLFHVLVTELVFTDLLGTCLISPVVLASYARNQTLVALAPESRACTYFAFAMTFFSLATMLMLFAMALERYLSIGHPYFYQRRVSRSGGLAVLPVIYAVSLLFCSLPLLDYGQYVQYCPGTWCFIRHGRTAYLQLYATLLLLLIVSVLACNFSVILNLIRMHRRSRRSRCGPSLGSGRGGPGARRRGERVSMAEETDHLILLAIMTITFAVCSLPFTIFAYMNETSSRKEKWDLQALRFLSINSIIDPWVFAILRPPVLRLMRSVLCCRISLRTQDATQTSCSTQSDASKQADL

EP4, sequence (P35408 whole entry): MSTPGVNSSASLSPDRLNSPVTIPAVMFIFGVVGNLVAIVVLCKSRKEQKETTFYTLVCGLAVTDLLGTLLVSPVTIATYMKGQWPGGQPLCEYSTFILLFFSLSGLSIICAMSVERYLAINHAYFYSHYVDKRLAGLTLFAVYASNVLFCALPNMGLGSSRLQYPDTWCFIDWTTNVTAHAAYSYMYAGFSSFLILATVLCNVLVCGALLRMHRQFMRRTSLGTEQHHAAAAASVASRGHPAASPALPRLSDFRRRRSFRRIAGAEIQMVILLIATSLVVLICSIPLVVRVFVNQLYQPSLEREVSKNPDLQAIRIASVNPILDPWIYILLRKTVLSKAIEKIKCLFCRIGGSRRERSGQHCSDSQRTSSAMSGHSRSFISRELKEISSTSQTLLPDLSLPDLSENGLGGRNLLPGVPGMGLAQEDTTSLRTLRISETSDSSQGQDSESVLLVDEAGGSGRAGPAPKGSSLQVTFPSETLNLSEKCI

For `CCCc1cc(-c2cc(NCCn3c(C)cc4c(OC)ccc(F)c43)ncn2)cc(OC)c1C(=O)O` [compound 619], the pIC50 (EP4) was 6.60 and the pIC50 (EP2) was 8.05.
With `CCCOc1cc(-c2cc(NCCn3c(C)cc4c(F)cc(F)c(F)c43)ncn2)cc(Cl)c1C(=O)O` [compound 620] the pIC50 (EP4) was 6.25 and the pIC50 (EP2) was 8.22.
With `COc1cc(F)c(F)c2c1cc(C)n2CCNc1cc(-c2ccc(C(=O)O)c(CC(C)C)c2)ncn1` [compound 621] the pIC50 (EP4) was 7.24 and the pIC50 (EP2) was 7.47.
In the case of `COc1c(Cl)cc(F)c2c1cc(C)n2CCNc1cc(-c2ccc(C(=O)O)c(CC(C)C)c2)ncn1` [compound 622], the pIC50 (EP4) was 6.52 and the pIC50 (EP2) was 6.14.
With `COc1cc(F)cc2c1cc(C)n2CCNc1cc(-c2ccc(C(=O)O)c(CC(C)C)c2)nc(C)n1` [compound 623] the pIC50 (EP4) was 6.89 and the pIC50 (EP2) was 7.35.
`CCCc1cc(-c2cc(NCCn3c(C)cc4c(C)ccc(F)c43)ncn2)cc(OCC)c1C(=O)O` [compound 624] gave a pIC50 (EP4) of 6.30 and a pIC50 (EP2) of 7.32.
`COc1ccc(F)c2c1cc(C)n2CCNc1cc(-c2ccc(C(=O)O)c(CC(C)C)c2)nc(C)n1` [compound 625] showed a pIC50 (EP4) of 7.15 and a pIC50 (EP2) of 7.80.
`CCOc1cc(-c2cc(NCCn3c(C)cc4c(C)cc(F)cc43)nc(C(F)(F)F)n2)sc1C(=O)O` [compound 626] gave a pIC50 (EP4) of 6.45 and a pIC50 (EP2) of 7.29.
With `CCCOc1cc(-c2cc(NCCn3c(C)cc4c(C)cc(F)c(F)c43)ncn2)cc(F)c1C(=O)O` [compound 627] the pIC50 (EP4) was 6.71 and the pIC50 (EP2) was 7.32.
Work on `CCCOc1cc(-c2cc(NCCn3c(C)cc4c(C)cc(F)c(F)c43)ncn2)cc(Cl)c1C(=O)O` [compound 628] yielded a pIC50 (EP4) of 6.60 and a pIC50 (EP2) of 7.05.
In the case of `CCCOc1cc(-c2cc(NCCn3c(C)cc4c(C)c(F)cc(F)c43)ncn2)cc(Cl)c1C(=O)O` [compound 629], the pIC50 (EP4) was 7.01 and the pIC50 (EP2) was 7.59.
`COc1cc(F)cc2c1cc(C)n2CCNc1cc(-c2ccc(C(=O)O)c(OC(F)F)c2)ncn1` [compound 630] was tested, and the pIC50 (EP4) was 6.85 and the pIC50 (EP2) was 8.22.
For `COc1ccc(Cl)c2c1cc(C)n2CCNc1cc(-c2ccc(C(=O)O)c(OC(F)F)c2)ncn1` [compound 631], the pIC50 (EP4) was 6.49 and the pIC50 (EP2) was 7.85.
`CCCc1cc(-c2cc(NCCn3c(C)cc4c(OC)ccc(Cl)c43)ncn2)cc(OCC)c1C(=O)O` [compound 633] was tested, and the pIC50 (EP4) was 6.12 and the pIC50 (EP2) was 7.22.
`CCCc1cc(-c2cc(NCCn3c(C)cc4c(OC)ccc(F)c43)ncn2)cc(OCC)c1C(=O)O` [compound 634] gave a pIC50 (EP4) of 6.71 and a pIC50 (EP2) of 7.57.
With `CCOc1cc(-c2cc(NCCn3c(C)cc4c(OC)cc(F)cc43)nc(C(F)(F)F)n2)sc1C(=O)O` [compound 635] the pIC50 (EP4) was 6.73 and the pIC50 (EP2) was 7.30.
With `COc1cc(F)c(F)c2c1cc(C)n2CCNc1cc(-c2ccc(C(=O)O)c(OC(F)(F)F)c2)ncn1` [compound 636] the pIC50 (EP4) was 6.59 and the pIC50 (EP2) was 7.17.
With `CCCOc1cc(-c2cc(NCCn3c(C)cc4c(OC)cc(F)c(F)c43)ncn2)cc(F)c1C(=O)O` [compound 637] the pIC50 (EP4) was 7.27 and the pIC50 (EP2) was 7.60.
`CCCOc1cc(-c2cc(NCCn3c(C)cc4c(OC)cc(F)c(F)c43)ncn2)cc(Cl)c1C(=O)O` [compound 638] gave a pIC50 (EP4) of 7.48 and a pIC50 (EP2) of 7.21.
Work on `COc1cc(F)c(F)c2c1cc(C)n2CCNc1cc(-c2ccc(-c3cnc(N)o3)cc2)ncn1` [compound 639] yielded a pIC50 (EP4) of 7.43 and a pIC50 (EP2) of 7.64.
In the case of `COc1cc(F)cc2c1cc(C)n2CCNc1cc(-c2ccc3[nH]c(C(F)(F)F)nc3c2)ncn1` [compound 640], the pIC50 (EP4) was 6.37 and the pIC50 (EP2) was 6.32.
For `COc1cc(F)c(F)c2c1cc(C)n2CCNc1cc(-c2ccc(-c3cncn3C)cc2)ncn1` [compound 641], the pIC50 (EP4) was 6.82 and the pIC50 (EP2) was 6.94.
`Cc1ccc(F)c2c1cc(C)n2CCNc1cc(-c2ccc(-c3cnc(CCC(=O)O)o3)cc2)ncn1` [compound 643] showed a pIC50 (EP4) of 6.15 and a pIC50 (EP2) of 6.53.
Molecule `COc1cc(F)c(F)c2c1cc(C)n2CCNc1cc(-c2ccc(C(=O)O)c(NCC(F)(F)F)c2)ncn1` [compound 644, 4-{6-[2-(6,7-Difluoro-4-methoxy-2-methyl-indol-1-yl)-ethylamino]-pyrimidin-4-yl}-2-(2,2,2-trifluoro-ethylamino)-benzoic acid] has a pIC50 (EP4) of 7.27 and a pIC50 (EP2) of 8.22.
With `CNc1nnc(-c2ccc(-c3cc(NCCn4c(C)cc5c(OC)cc(F)cc54)ncn3)cc2)s1` [compound 645] the pIC50 (EP4) was 7.80 and the pIC50 (EP2) was 8.05.
`COc1ccc(F)c2c1cc(C)n2CCNc1cc(-c2ccc(-c3cnc(CCC(=O)O)o3)cc2)ncn1` [compound 646] gave a pIC50 (EP4) of 6.51 and a pIC50 (EP2) of 7.32.
With `Cc1nc(CCC(=O)O)oc1-c1ccc(-c2cc(NCCn3c(C)cc4c(C)cc(F)cc43)ncn2)cc1` [compound 647] the pIC50 (EP4) was 6.52 and the pIC50 (EP2) was 6.84.
`Cc1nc(CCC(=O)O)oc1-c1ccc(-c2cc(NCCn3c(C)cc4c(C)ccc(F)c43)ncn2)cc1` [compound 648] showed a pIC50 (EP4) of 6.05 and a pIC50 (EP2) of 6.71.
`COc1cccc2c1cc(C)n2CCNc1cc(-c2ccc(C(=O)O)c(Oc3ccc(F)cc3)c2)ncn1` [compound 649] gave a pIC50 (EP4) of 6.11 and a pIC50 (EP2) of 7.89.
With `Cc1ccc(F)c2c1cc(C)n2CCNc1cc(-c2ccc(C(=O)O)c(Oc3ccc(F)cc3)c2)ncn1` [compound 650] the pIC50 (EP4) was 6.35 and the pIC50 (EP2) was 7.03.
Molecule `COc1cc(F)cc2c1cc(C)n2CCNc1cc(-c2ccc(-c3oc(CCC(=O)O)nc3C)cc2)ncn1` [compound 651] has a pIC50 (EP4) of 6.59 and a pIC50 (EP2) of 6.78.
`COc1ccc(F)c2c1cc(C)n2CCNc1cc(-c2ccc(-c3oc(CCC(=O)O)nc3C)cc2)ncn1` [compound 652] showed a pIC50 (EP4) of 6.87 and a pIC50 (EP2) of 7.22.
`Cc1nc(CCC(=O)O)oc1-c1ccc(-c2cc(NCCn3c(C)cc4c(C)cc(F)c(F)c43)ncn2)cc1` [compound 653] showed a pIC50 (EP4) of 6.28 and a pIC50 (EP2) of 6.37.
`COc1ccc(F)c2c1cc(C)n2CCNc1cc(-c2ccc(C(=O)O)c(Oc3ccc(F)cc3)c2)ncn1` [compound 654] showed a pIC50 (EP4) of 6.50 and a pIC50 (EP2) of 7.59.
`COc1cc(F)c(F)c2c1cc(C)n2CCNc1cc(-c2ccc(-c3oc(CCC(=O)O)nc3C)cc2)ncn1` [compound 655] gave a pIC50 (EP4) of 6.72 and a pIC50 (EP2) of 6.82.
`CCOc1cc(-c2cc(NCCn3c(C)cc4c(OC)cc(F)c(F)c43)ncn2)cc(F)c1-c1nnn[nH]1` [compound 656] showed a pIC50 (EP4) of 7.05 and a pIC50 (EP2) of 7.28.
Molecule `CCOc1cc(-c2cc(NCCn3c(C)cc4c(C)cc(F)c(F)c43)ncn2)cc(F)c1-c1nnn[nH]1` [compound 657] has a pIC50 (EP4) of 6.72 and a pIC50 (EP2) of 7.15.
For `CCOc1cc(-c2cc(NCCn3c(C)cc4c(OC)cc(F)cc43)ncn2)cc(F)c1-c1nnn[nH]1` [compound 658], the pIC50 (EP4) was 6.54 and the pIC50 (EP2) was 7.62.
`CCNc1cc(-c2cc(NCCn3c(C)cc4c5c(cc(Cl)c43)OCO5)ncn2)ccc1-c1nnn[nH]1` [compound 659, [2-(5-Chloro-7-methyl-[1,3]dioxolo[4,5-e]indol-6-yl)-ethyl]-{6-[3-ethylamino-4-(1H-tetrazol-5-yl)-phenyl]-pyrimidin-4-yl}-amine] gave a pIC50 (EP4) of 7.27 and a pIC50 (EP2) of 8.22.
Work on `CCOc1cc(-c2cc(NCCn3c(C)cc4c(C)cc(F)cc43)ncn2)cc(F)c1-c1nnn[nH]1` [compound 660] yielded a pIC50 (EP4) of 6.52 and a pIC50 (EP2) of 7.80.
`CCOc1cc(-c2cc(NCCn3c(C)cc4c(OC)ccc(F)c43)ncn2)ccc1-c1nnn[nH]1` [compound 661] showed a pIC50 (EP4) of 7.41 and a pIC50 (EP2) of 8.40.
Work on `CCOc1cc(-c2cc(NCCn3c(C)cc4c(OC)ccc(Cl)c43)ncn2)ccc1-c1nnn[nH]1` [compound 662] yielded a pIC50 (EP4) of 6.87 and a pIC50 (EP2) of 8.10.
`CCOc1cc(-c2cc(NCCn3c(C)cc4c(OC)cccc43)ncn2)ccc1-c1nnn[nH]1` [compound 664] was tested, and the pIC50 (EP4) was 7.02 and the pIC50 (EP2) was 8.40.
`CCNc1cc(-c2cc(NCCn3c(C)cc4c(OC)ccc(F)c43)ncn2)ccc1-c1nnn[nH]1` [compound 665, {6-[3-Ethylamino-4-(1H-tetrazol-5-yl)-phenyl]-pyrimidin-4-yl}-[2-(7-fluoro-4-methoxy-2-methyl-indol-1-yl)-ethyl]-amine] was tested, and the pIC50 (EP4) was 7.89 and the pIC50 (EP2) was 8.70.
In the case of `CCNc1cc(-c2cc(NCCn3c(C)cc4c(OC)ccc(Cl)c43)ncn2)ccc1-c1nnn[nH]1` [compound 666, [2-(7-Chloro-4-methoxy-2-methyl-indol-1-yl)-ethyl]-{6-[3-ethylamino-4-(1H-tetrazol-5-yl)-phenyl]-pyrimidin-4-yl}-amine], the pIC50 (EP4) was 7.40 and the pIC50 (EP2) was 8.15.
With `CCNc1cc(-c2cc(NCCn3c(C)cc4c(OC)cccc43)ncn2)ccc1-c1nnn[nH]1` [compound 667, {6-[3-Ethylamino-4-(1H-tetrazol-5-yl)-phenyl]-pyrimidin-4-yl}-[2-(4-methoxy-2-methyl-indol-1-yl)-ethyl]-amine] the pIC50 (EP4) was 7.77 and the pIC50 (EP2) was 8.70.
Work on `CCNc1cc(-c2cc(NCCn3c(C)cc4c(C)ccc(F)c43)ncn2)ccc1-c1nnn[nH]1` [compound 668, {6-[3-Ethylamino-4-(1H-tetrazol-5-yl)-phenyl]-pyrimidin-4-yl}-[2-(7-fluoro-2,4-dimethyl-indol-1-yl)-ethyl]-amine] yielded a pIC50 (EP4) of 7.66 and a pIC50 (EP2) of 8.10.
With `CCOc1cc(-c2cc(NCCn3c(C)cc4ccccc43)ncn2)ccc1-c1nnn[nH]1` [compound 669] the pIC50 (EP4) was 6.19 and the pIC50 (EP2) was 8.70.
`COc1cc(-c2cc(NCCn3c(C)cc4c(OC)cccc43)ncn2)ccc1-c1nnn[nH]1` [compound 670, [2-(4-Methoxy-2-methyl-indol-1-yl)-ethyl]-{6-[3-methoxy-4-(1H-tetrazol-5-yl)-phenyl]-pyrimidin-4-yl}-amine] showed a pIC50 (EP4) of 6.39 and a pIC50 (EP2) of 8.10.
`CCNc1cc(-c2cc(NCCn3c(C)cc4ccccc43)ncn2)ccc1-c1nnn[nH]1` [compound 671, {6-[3-Ethylamino-4-(1H-tetrazol-5-yl)-phenyl]-pyrimidin-4-yl}-[2-(2-methyl-indol-1-yl)-ethyl]-amine] gave a pIC50 (EP4) of 6.87 and a pIC50 (EP2) of 8.70.
`CCCCOc1cc(-c2cc(NCCn3c(C)cc4c(OC)cc(F)cc43)ncn2)sc1C(=O)O` [compound 672] was tested, and the pIC50 (EP4) was 8.52 and the pIC50 (EP2) was 9.00.
Molecule `CCCCOc1cc(-c2cc(NCCn3c(C)cc4c(OC)ccc(F)c43)ncn2)sc1C(=O)O` [compound 673] has a pIC50 (EP4) of 8.52 and a pIC50 (EP2) of 8.70.
